The record followed here is US9289445B2, “Compositions and methods for treating or preventing a retrovirus infection” (University of Rochester, priority 2011, dated 2016).

Series [1] concerns U937 cells. The experiment in a line: Cytotoxicity of rACT, FACS/trypan blue. Type of series: cell-based, human. The note with it: concentrations up to 1 mM, 2 days. Here is the method:
(§1) FIGS. 6A-6E show inhibition of HIV-1 reverse transcription by 3′ deoxyadenosine chain terminator (rACT) in human primary macrophages and its cytotoxicity. FIG. 6A includes a graph showing the cytotoxicity of rACT in human primary CD4^+ T cells, U937 cells, and CHME5 cells. These three types of cells were cultured and treated with different concentrations of rACT (up to 1 mM) for 2 days, and the percentage of live and dead cells were determined by FACS and/or trypan blue staining. The percentage of the live cells in the absence of rACT was used for normalization (100%), and the base line cell death of these cell types in the absence of rACT were less than 5%. FIG. 6B includes FACS results. […] The percentages of GFP positive macrophages and PI positive cells in a representative donor, which were determined by FACS at 7 days post transduction, are shown. […] Genomic DNAs were extracted from the transduced macrophages in FIG. 6B, and were used in a quantitative 2LTR circle PCR assay. Viral production was determined by p24 ELISA with the collected media. […]
(§2) First, the cytotoxicity of rACT in human primary CD4^+ T cells, human primary macrophages, human microglial CHME5, and human premonocytic U937 cell lines was assessed. Cells were incubated with different concentrations of rACT (up to 1 mM) for 2 days, and cell survival was determined. […]

Series [2] concerns CHME5 cells. As to the kind of experiment: Cytotoxicity of rACT, FACS/trypan blue. Type of series: cell-based, human. The settings on record: concentrations up to 1 mM, 2 days. Here is the method:
as §1, §2

Series [3] concerns human primary CD4+ T cells. As to the kind of experiment: Cytotoxicity of rACT, FACS/trypan blue. Type of series: cell-based. The note with it: concentrations up to 1 mM, 2 days. As for the experimental part: as §1, §2
For series [4], the system named is human primary macrophages. The experiment in a line: Toxicity of rNCTs in macrophages, propidium iodide-based FACS. Type of series: cell-based. The settings on record: 0.5, 1 and 2 mM, 7 days. Here is the method: Human primary macrophages were incubated in the presence or absence of rACT, rCCT, rGCT, or rUCT (0.5, 1 and 2 mM) for 7 days, and the percent of live cells (cell survival rate) were determined by propidium iodide-based FACS. FIG. 12 includes a graph of cell survival rate with each rNCTP.
The continuous HIV-1 culture system in human primary macrophages was also employed to evaluate the toxicity of rNCTs in nondividing cells. Human primary macrophages were incubated in the presence or absence of each rNCT (0.5, 1 and 2 mM) for 7 days, and the percentage of live cells (cell survival rate) were determined by propidium iodide-based FACS.

Series [5] has as its system HIV-1 2-LTR DNA circles (proviral DNA synthesis) in macrophages. The experiment in a line: Quantitative 2LTR circle PCR in transduced macrophages. Type of series: cell-based. The settings on record: rACT 0.1 and 1 mM, macrophages.
Procedure: Human macrophages, which were prepared from multiple donors, were pre-incubated with various concentrations of rACT, and then transduced with an HIV vector (D3-GFP), which expressed all HIV-1 proteins except Env and Nef (replaced with eGFP).
(§3) Dideoxy uracil triphosphate (ddUTP) was assessed for its ability to inhibit viral reverse transcription in non-dividing cells. Primary human macrophages and CD4^+ T-cells were isolated from human buffy coats and pretreated with ddUTP. The treated cells were then transduced with a single round of VSV-G pseudotyped HIV-1 vector D3-HIV in the presence of various concentrations of drug.
Equal p24 level of the produced vector was used for infecting human macrophages pre-incubated with different concentrations of rACT (RI Chemicals, CA) for 12 hours. For ddUTP, the produced vector was pre-incubated for at least two hours. One half of the harvested cells were used for determining the percentages of the GFP expressing and/or propidium iodide (PI) stained cells by FACS at 7 days post infection. All cells used to asses transduction efficiency were gated or stained with propidium iodide to assure live cells were measured. The remaining cells were used for the extraction of genomic DNA. Quantitative 2LTR circle PCR assay using real-time PCR was normalized by total genomic DNA (Biorad, Hercules, Calif.).
Series [6] relates to HIV-1 vector (D3-GFP) in primary human macrophages. As to the kind of experiment: HIV-GFP vector transduction of primary macrophages (GFP FACS). Type of series: cell-based. The note with it: rACT 0.1 and 1 mM, 7 days post infection, versus no treatment.
Procedure: Human primary macrophages were preincubated with different concentrations of rACT (0, 10, 100 and 100 μM) for 24 hours and then transduced with HIV-GFP vector (equal p24 amounts). The percentages of GFP positive macrophages and PI positive cells in a representative donor, which were determined by FACS at 7 days post transduction, are shown. […] These experiments were performed in triplicate from three different blood donors.
Primary human macrophages were pretreated with ddUTP and transduced with a single round VSV-G pseudotyped HIV-1 vector (D3HIV). […] FIG. 10B is a graph showing the results from flow cytometry analysis of the transduced cells.
Next, rACT was evaluated for its ability to inhibit HIV-1 replication in non-dividing cells. The transduction efficiency of an HIV-1 vector in primary human macrophages in the presence and absence of rACT was measured. Human macrophages, which were prepared from multiple donors, were pre-incubated with various concentrations of rACT, and then transduced with an HIV vector (D3-GFP), which expressed all HIV-1 proteins except Env and Nef (replaced with eGFP). Virus infectivity was determined by FACS analysis for GFP expression at 7 days post infection.
Dideoxy uracil triphosphate (ddUTP) was assessed for its ability to inhibit viral reverse transcription in non-dividing cells. […]
The subject of series [7] is HIV-1 vector (DHIV-GFP) in activated CD4+ T cells. As to the kind of experiment: HIV-GFP vector transduction of activated CD4+ T cells (GFP FACS). Type of series: cell-based. The note with it: rACT 0.1 and 1 mM, activated CD4+ T cells compared to macrophages.
Procedure: Next, rACT was evaluated for its ability to inhibit HIV-1 replication in non-dividing cells. The transduction efficiency of an HIV-1 vector in primary human macrophages in the presence and absence of rACT was measured. Human macrophages, which were prepared from multiple donors, were pre-incubated with various concentrations of rACT, and then transduced with an HIV vector (D3-GFP), which expressed all HIV-1 proteins except Env and Nef (replaced with eGFP). Virus infectivity was determined by FACS analysis for GFP expression at 7 days post infection. […] Finally, the effect of rACT on HIV-1 infection in activated CD4^+ T cells was examined.
as §3
rACT was tested in T cells as follows, human primary activated CD4^+ T cells (2.5×10^5) cells isolated from two donors were pre-treated with 0, 0.1, and 1 mM rACT for 4 hours, and then the cells were transduced with DHIV-GFP. The transduced cells were fixed at 48 hours post transduction, and analyzed by FACS for determining the percent of GFP cells. […]

For the molecule `Nc1ncnc2c1ncn2[C@@H]1O[C@H](CO)C[C@H]1O` [rACT, 3′-deoxyadenosine], the cytotoxicity entry in series [1], in series [2] and in series [3] was “no significant cytotoxicity” throughout. Besides, in series [4], the “cytotoxicity (cell survival rate)” value was “no significant cytotoxicity”. Besides, the “2-LTR circle copy number” value in series [5] is given as “substantially reduced the 2-LTR circle copy number”. In addition, the “percent of macrophages expressing GFP” value in series [6] is “reduced the percent of macrophages expressing GFP”. The “inhibitory effect on HIV-1 infection (GFP positive cells)” value in series [7] is listed as “less of an inhibitory effect”.
